In patent publication US9783505B2, “Substituted diaminopyrimidyl compounds, compositions thereof, and methods of treatment therewith” (Signal Pharmaceuticals, LLC, priority 2013, dated 2017):

Tests used:
His-PKC-theta = target: T1, His-PKC-theta (Homo sapiens, UniProt Q04759); experiment: PKC-theta Assay (384-well time resolved fluorescence, IMAP TR-FRET); format: biochemical; settings: read-out: Act. Level (IC50 in the PKC-theta Assay)
T1 construct: His; purchased Invitrogen
Outline: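 Fam-labeled S6-derived peptide (200 nM) and 10 μM ATP were reacted with 142 pM enzyme for 2 h at room temperature in HEPES pH 7.6 buffer with MgCl2, DTT, Triton X-100, BSA and EDTA. The reaction was stopped with IMAP progressive binding reagent plus Tb donor, incubated overnight, then TR-FRET read.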

PKC delta = target: T2, PKC delta (Homo sapiens, UniProt Q05655); experiment: PKC delta Assay (384-well time resolved fluorescence, IMAP TR-FRET); format: biochemical; settings: selectivity for PKC-theta over PKC-delta
T2 construct: purchased Invitrogen
Description: PKC delta Assay. A 384-well time resolved fluorescence assay was used to monitor PKC delta activity. The PKC delta assay was run in the following assay buffer: 50 mM HEPES pH 7.6, 10 mM MgCl2, 1 mM DTT, 0.01% Triton X-100, 0.01% BSA and 0.1 mM EDTA. To initiate the reaction, 200 nM of Fam-labeled S6-derived peptide (Molecular Devices) and 10 μM of ATP were mixed with 1.5 nM of PKC delta (Invitrogen), for a total assay volume of 25 μL in each well. The assay was incubated at room temperature for 2 hours and terminated using a 60 μL/well mixture of Detection Binding Solution: 70% IMAP Progressive Binding Buffer A, 30% IMAP Progressive Binding Buffer B, 1:600 Progressive Binding Reagent, and 1:400 TR-FRET Tb Donor (Molecular Devices). The assay plates were then incubated overnight at room temperature and read on the Perkin-Elmer Envision Reader.

T2 sequence (Q05655 whole entry): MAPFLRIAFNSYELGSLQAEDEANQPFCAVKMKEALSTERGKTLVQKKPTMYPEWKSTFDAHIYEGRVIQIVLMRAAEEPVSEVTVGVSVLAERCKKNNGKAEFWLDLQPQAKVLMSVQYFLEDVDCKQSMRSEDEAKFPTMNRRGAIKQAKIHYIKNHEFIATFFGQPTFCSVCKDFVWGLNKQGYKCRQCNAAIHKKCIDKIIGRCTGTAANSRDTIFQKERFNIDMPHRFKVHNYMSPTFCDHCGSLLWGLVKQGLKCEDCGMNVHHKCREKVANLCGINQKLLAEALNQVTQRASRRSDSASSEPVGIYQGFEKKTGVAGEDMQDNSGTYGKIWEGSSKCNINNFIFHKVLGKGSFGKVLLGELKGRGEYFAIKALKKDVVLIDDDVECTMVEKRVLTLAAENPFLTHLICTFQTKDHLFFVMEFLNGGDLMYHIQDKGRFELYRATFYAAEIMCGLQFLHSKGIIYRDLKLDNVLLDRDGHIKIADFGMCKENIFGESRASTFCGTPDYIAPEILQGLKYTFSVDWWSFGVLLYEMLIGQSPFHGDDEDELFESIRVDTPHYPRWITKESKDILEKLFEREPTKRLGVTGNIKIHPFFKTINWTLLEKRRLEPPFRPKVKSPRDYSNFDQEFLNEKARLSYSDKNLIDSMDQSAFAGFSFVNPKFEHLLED
T1 sequence (Q04759 whole entry): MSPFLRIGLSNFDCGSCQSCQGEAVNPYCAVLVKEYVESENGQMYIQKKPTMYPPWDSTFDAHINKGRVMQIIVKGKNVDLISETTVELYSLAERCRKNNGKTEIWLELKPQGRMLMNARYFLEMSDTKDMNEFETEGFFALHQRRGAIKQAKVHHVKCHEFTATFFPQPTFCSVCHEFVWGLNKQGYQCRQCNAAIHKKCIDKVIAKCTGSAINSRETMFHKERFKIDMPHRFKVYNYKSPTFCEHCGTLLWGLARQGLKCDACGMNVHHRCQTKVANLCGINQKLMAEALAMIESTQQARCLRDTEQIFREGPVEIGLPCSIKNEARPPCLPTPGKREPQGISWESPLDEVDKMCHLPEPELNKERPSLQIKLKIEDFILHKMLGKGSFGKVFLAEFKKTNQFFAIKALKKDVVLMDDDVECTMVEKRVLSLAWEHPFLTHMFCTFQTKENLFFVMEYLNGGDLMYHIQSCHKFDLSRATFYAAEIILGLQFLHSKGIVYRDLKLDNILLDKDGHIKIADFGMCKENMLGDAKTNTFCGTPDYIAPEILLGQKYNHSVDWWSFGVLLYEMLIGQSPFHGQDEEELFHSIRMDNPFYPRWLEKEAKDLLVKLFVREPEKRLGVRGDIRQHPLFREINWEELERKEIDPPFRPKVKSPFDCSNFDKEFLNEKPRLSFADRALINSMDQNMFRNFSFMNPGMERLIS

Row | SMILES | IC50 (His-PKC-theta) | Sel. Level (ratio of IC50 PKC-delta/IC50 PKC-theta) (PKC delta)
1 | CC1(C)[C@@H](O)C[C@H]1Nc1nc(NCCC2C(=O)Nc3ccccc32)ncc1C#N (some centres unmarked) [Cmpd 259] | < 100 nM | E (selectivity (Sel. Level=ratio of IC50 PKC-delta/IC50 PKC-theta) of >100-fold (selectivity level E))
2 | CC1(C)[C@@H](Nc2nc(NCCC3C(=O)Nc4ccc(F)cc43)ncc2C#N)CCC[C@@H]1O (some centres unmarked) [Cmpd 313] | 100 to 800 nM | F (selectivity of between 20- and 100-fold (selectivity level F))
3 | CC1(C)C[C@H](Nc2nc(NCCc3ccccn3)ncc2C#N)CC[C@@H]1O [Cmpd 282] | 2000 to 10000 nM | H (selectivity level of 5-fold or less (selectivity level H))
4 | Cc1cccc(CCNc2ncc(C#N)c(N[C@@H]3C[C@H](O)C3(C)C)n2)n1 [Cmpd 262] | 2000 to 10000 nM | H (selectivity level of 5-fold or less (selectivity level H))
5 | CC1(C)[C@@H](O)C[C@H]1Nc1nc(NCCc2c[nH]c3ncccc23)ncc1C#N [Cmpd 241] | 800 to 2000 nM | G (selectivity between 5- and 20-fold (selectivity level G))
6 | CC1(C)[C@@H](O)C[C@H]1Nc1nc(NCCc2cnoc2)ncc1C#N [Cmpd 246] | 2000 to 10000 nM | H (selectivity level of 5-fold or less (selectivity level H))
7 | CC1(C)C[C@H](Nc2nc(NCCc3c[nH]c4ncccc34)ncc2C#N)CC[C@@H]1O [Cmpd 204] | 100 to 800 nM | F (selectivity of between 20- and 100-fold (selectivity level F))
8 | Cc1cccnc1CCNc1ncc(C#N)c(N[C@@H]2CC[C@H](O)C(C)(C)C2)n1 [Cmpd 214] | 2000 to 10000 nM | H (selectivity level of 5-fold or less (selectivity level H))
9 | CC1(C)[C@@H](O)C[C@H]1Nc1nc(NCCc2c[nH]c3cc(F)ccc23)ncc1C#N [Cmpd 265] | 100 to 800 nM | G (selectivity between 5- and 20-fold (selectivity level G))
10 | CC1(C)C[C@H](Nc2nc(NCCc3cc4ccccc4[nH]3)ncc2C#N)CC[C@@H]1O [Cmpd 200] | 800 to 2000 nM | G (selectivity between 5- and 20-fold (selectivity level G))
11 | CCOc1cccc(CCNc2ncc(C#N)c(N[C@@H]3C[C@H](O)C3(C)C)n2)n1 [Cmpd 267] | 800 to 2000 nM | G (selectivity between 5- and 20-fold (selectivity level G))
12 | Cc1cc(C(F)(F)F)nn1CCNc1ncc(C#N)c(N[C@@H]2CC[C@H](O)C(C)(C)C2)n1 [Cmpd 210] | 800 to 2000 nM | G (selectivity between 5- and 20-fold (selectivity level G))
13 | CC1(C)[C@@H](O)CCC[C@H]1Nc1nc(NCCC2C(=O)Nc3cc(F)ccc32)ncc1C#N (some centres unmarked) [Cmpd 312] | 100 to 800 nM | G (selectivity between 5- and 20-fold (selectivity level G))
14 | Cc1ncccc1CCNc1ncc(C#N)c(N[C@H]2CC[C@@H](C(N)=O)CC2)n1 [Cmpd 322] | 100 to 800 nM | G (selectivity between 5- and 20-fold (selectivity level G))
15 | CC1(C)C[C@H](Nc2nc(NCCn3cccc3)ncc2C#N)CC[C@@H]1O [Cmpd 201] | 100 to 800 nM | F (selectivity of between 20- and 100-fold (selectivity level F))
16 | CC1(C)C[C@H](Nc2nc(NCCc3cnccn3)ncc2C#N)CC[C@@H]1O [Cmpd 279] | 2000 to 10000 nM | H (selectivity level of 5-fold or less (selectivity level H))
17 | COCc1noc(CCNc2ncc(C#N)c(N[C@@H]3CC[C@H](O)C(C)(C)C3)n2)n1 [Cmpd 199] | 2000 to 10000 nM | H (selectivity level of 5-fold or less (selectivity level H))
18 | C[C@]1(O)CC2(C[C@H](Nc3nc(NCCC4C(=O)Nc5ccccc54)ncc3C#N)C2)C1 (some centres unmarked) [Cmpd 302] | 800 to 2000 nM | G (selectivity between 5- and 20-fold (selectivity level G))
19 | CC1(C)C[C@H](Nc2nc(NCCc3ccn[nH]3)ncc2C#N)CC[C@@H]1O [Cmpd 216] | 800 to 2000 nM | G (selectivity between 5- and 20-fold (selectivity level G))

Row | SMILES | IC50 (His-PKC-theta) | Sel. Level (ratio of IC50 PKC-delta/IC50 PKC-theta) (PKC delta)
20 | COc1cncc(CCNc2ncc(C#N)c(N[C@H]3CC[C@@H](O)CC3)n2)c1 [Cmpd 331] | 2000 to 10000 nM | H (selectivity level of 5-fold or less (selectivity level H))
21 | CC1(C)[C@@H](O)C[C@H]1Nc1nc(NCCc2cccc3cc[nH]c23)ncc1C#N [Cmpd 229] | 800 to 2000 nM | G (selectivity between 5- and 20-fold (selectivity level G))
22 | CC1(C)C(O)C[C@H]1Nc1nc(NCCc2cnccn2)ncc1C#N (some centres unmarked) [Cmpd 226] | 2000 to 10000 nM | H (selectivity level of 5-fold or less (selectivity level H))
23 | CC(F)(F)COc1ncncc1CNc1ncc(C#N)c(N[C@H]2CC3(C2)C[C@](C)(O)C3)n1 (some centres unmarked) [Cmpd 294] | 100 to 800 nM | F (selectivity of between 20- and 100-fold (selectivity level F))
24 | CC1(C)C[C@H](Nc2nc(NCCc3cnoc3)ncc2C#N)CC[C@@H]1O [Cmpd 222] | 800 to 2000 nM | G (selectivity between 5- and 20-fold (selectivity level G))
25 | Cc1[nH]c2cc(Cl)cc(Cl)c2c1CCNc1ncc(C#N)c(N[C@@H]2CC[C@H](O)C(C)(C)C2)n1 [Cmpd 254] | 100 to 800 nM | G (selectivity between 5- and 20-fold (selectivity level G))
26 | Cc1cccc2c1NC(=O)C2CCNc1ncc(C#N)c(N[C@@H]2CC[C@H](O)C(C)(C)C2)n1 (some centres unmarked) [Cmpd 248] | < 100 nM | F (selectivity of between 20- and 100-fold (selectivity level F))
27 | CC1(C)C[C@H](Nc2nc(NCCc3cccnc3)ncc2C#N)CC[C@@H]1O [Cmpd 281] | 800 to 2000 nM | G (selectivity between 5- and 20-fold (selectivity level G))
28 | CC1(C)[C@@H](O)C[C@H]1Nc1nc(NCCc2cc3ccccc3[nH]2)ncc1C#N [Cmpd 237] | 800 to 2000 nM | G (selectivity between 5- and 20-fold (selectivity level G))
29 | CC1(C)[C@@H](O)CCC[C@H]1Nc1nc(NCCC2C(=O)Nc3ccc(F)cc32)ncc1C#N (some centres unmarked) [Cmpd 316] | < 100 nM | F (selectivity of between 20- and 100-fold (selectivity level F))
30 | Cc1ccc(CCNc2ncc(C#N)c(N[C@@H]3C[C@H](O)C3(C)C)n2)cn1 [Cmpd 235] | 2000 to 10000 nM | H (selectivity level of 5-fold or less (selectivity level H))
31 | CCOc1cc(CCNc2ncc(C#N)c(N[C@@H]3CC[C@H](O)C(C)(C)C3)n2)ccn1 [Cmpd 330] | 100 to 800 nM | G (selectivity between 5- and 20-fold (selectivity level G))
32 | CC1(C)[C@H](Nc2nc(NCc3cncnc3OCC(F)F)ncc2C#N)C[C@]1(C)O [Cmpd 332] | < 100 nM | E (selectivity (Sel. Level=ratio of IC50 PKC-delta/IC50 PKC-theta) of >100-fold (selectivity level E))
33 | CC1(C)[C@@H](O)C[C@H]1Nc1nc(NCCc2c[nH]c3ccccc23)ncc1C#N [Cmpd 240] | < 100 nM | G (selectivity between 5- and 20-fold (selectivity level G))
34 | CC1(C)[C@@H](O)C[C@H]1Nc1nc(NCCc2ccon2)ncc1C#N [Cmpd 228] | 800 to 2000 nM | G (selectivity between 5- and 20-fold (selectivity level G))
35 | Cc1cccc2c1NC(=O)C2CCNc1ncc(C#N)c(N[C@@H]2C[C@H](O)C2(C)C)n1 (some centres unmarked) [Cmpd 260] | < 100 nM | F (selectivity of between 20- and 100-fold (selectivity level F))
36 | CC1(C)C[C@H](Nc2nc(NCCn3ccnc3)ncc2C#N)CC[C@@H]1O [Cmpd 221] | 2000 to 10000 nM | H (selectivity level of 5-fold or less (selectivity level H))
37 | CC(F)(F)COc1ncncc1CNc1ncc(C#N)c(N[C@@H]2CCC[C@@H](O)C2(C)C)n1 [Cmpd 297] | 100 to 800 nM | F (selectivity of between 20- and 100-fold (selectivity level F))
